Experimental data reported in ChEMBL document CHEMBL1155906, “Structural modifications of N-arylamide oxadiazoles: Identification of N-arylpiperidine oxadiazoles as potent and selective agonists of CB2” (Bioorg Med Chem Lett, 2008).
The source made the active and inactive calls. The rule behind the calls is not given here.

What was measured:
Homo sapiens = species on record: Homo sapiens; assay: Selectivity for human CB2 receptor over human CB1 receptor by on Eu-GTP binding assay
[1] = Clearance in iv dosed rat; assay type: ADME, organism-based; conditions: in vivo
Cannabinoid receptor 2 [2] = biological target: T1, Cannabinoid receptor 2 (Homo sapiens, UniProt P34972); assay: Agonist activity at human CB2 receptor expressed in insect Sf9 cells assessed as effect on Eu-GTP binding
T1 sequence (P34972 whole entry): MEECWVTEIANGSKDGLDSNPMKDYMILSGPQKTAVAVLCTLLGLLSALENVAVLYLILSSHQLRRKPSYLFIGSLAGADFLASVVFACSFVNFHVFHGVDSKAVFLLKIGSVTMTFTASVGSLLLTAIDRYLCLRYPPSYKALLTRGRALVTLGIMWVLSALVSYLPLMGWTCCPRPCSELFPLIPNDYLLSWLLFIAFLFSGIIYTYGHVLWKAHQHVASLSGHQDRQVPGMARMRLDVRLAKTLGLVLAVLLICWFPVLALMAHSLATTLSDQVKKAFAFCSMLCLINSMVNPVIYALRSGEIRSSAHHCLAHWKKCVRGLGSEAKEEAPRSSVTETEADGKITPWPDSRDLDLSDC

Cannabinoid receptor 2 [3] = biological target: T1, Cannabinoid receptor 2; assay: Agonist activity at human CB2 receptor expressed in insect Sf9 cells assessed as effect on Eu-GTP binding relative to CP-55940
Cannabinoid receptor 1 [4] = biological target: T2, Cannabinoid receptor 1 (Homo sapiens, UniProt P21554); assay: Agonist activity at human CB1 receptor expressed in insect Sf9 cells assessed as effect on Eu-GTP binding
T2 sequence (P21554 whole entry): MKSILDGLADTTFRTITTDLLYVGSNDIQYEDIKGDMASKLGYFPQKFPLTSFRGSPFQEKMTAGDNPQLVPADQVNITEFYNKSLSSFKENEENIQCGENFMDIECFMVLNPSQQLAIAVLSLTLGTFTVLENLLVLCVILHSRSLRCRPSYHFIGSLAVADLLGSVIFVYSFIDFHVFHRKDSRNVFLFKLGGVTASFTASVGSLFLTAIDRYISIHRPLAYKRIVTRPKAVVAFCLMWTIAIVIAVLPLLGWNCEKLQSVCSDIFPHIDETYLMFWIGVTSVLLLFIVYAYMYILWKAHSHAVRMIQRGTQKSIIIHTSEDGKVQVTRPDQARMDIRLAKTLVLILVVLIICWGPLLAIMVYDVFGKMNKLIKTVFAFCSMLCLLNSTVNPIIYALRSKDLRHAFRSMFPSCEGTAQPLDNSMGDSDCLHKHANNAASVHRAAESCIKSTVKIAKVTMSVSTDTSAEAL

Cannabinoid receptor 1 [5] = biological target: T2, Cannabinoid receptor 1; assay: Agonist activity at human CB1 receptor expressed in insect Sf9 cells assessed as effect on Eu-GTP binding relative to CP-55940
[6] = Metabolic stability in rat liver microsome assessed as intrinsic clearance; assay type: ADME; conditions: liver microsomes
[7] = Metabolic stability in human liver microsome assessed as intrinsic clearance; assay type: ADME; conditions: liver microsomes
Cannabinoid receptor 2 [8] = biological target: T1, Cannabinoid receptor 2; assay: Agonist activity at human CB2 receptor assessed as inhibition of forskolin-induced increase in intracellular cAMP; assay type: functional, cell-based
Cannabinoid receptor 2 [9] = biological target: T1, Cannabinoid receptor 2; assay: Agonist activity at human CB2 receptor assessed as inhibition of forskolin-induced increase in intracellular cAMP relative to CP-55940; assay type: functional, cell-based
Cannabinoid receptor 1 [10] = biological target: T2, Cannabinoid receptor 1; assay: Agonist activity at human CB1 receptor assessed as inhibition of forskolin-induced increase in intracellular cAMP; assay type: functional, cell-based
Cannabinoid receptor 1 [11] = biological target: T2, Cannabinoid receptor 1; assay: Agonist activity at human CB1 receptor assessed as inhibition of forskolin-induced increase in intracellular cAMP relative to CP-55940; assay type: functional, cell-based
Cannabinoid receptor 2 [12] = biological target: T1, Cannabinoid receptor 2; assay: Agonist activity at human CB2 receptor expressed in insect Sf9 cells assessed as effect on Eu-GTP binding at 10 uM
Cannabinoid receptor 1 [13] = biological target: T2, Cannabinoid receptor 1; assay: Agonist activity at human CB1 receptor expressed in insect Sf9 cells assessed as effect on Eu-GTP binding at 10 uM

Row | Compound | EC50 (Cannabinoid receptor 2 [2]) | Emax (Cannabinoid receptor 2 [3]) | Emax (Cannabinoid receptor 1 [5]) | EC50 (Cannabinoid receptor 2 [8]) | Emax (Cannabinoid receptor 2 [9]) | EC50 (Cannabinoid receptor 1 [10]) | Emax (Cannabinoid receptor 1 [11]) | Activity (Cannabinoid receptor 2 [12]) | Activity (Cannabinoid receptor 1 [13]) | Selectivity (Homo sapiens) | clearance [1] | EC50 (Cannabinoid receptor 1 [4]) | microsomal CLint [6] | microsomal CLint [7]
1 | O=C(CCc1nc(-c2ccc(F)cc2Cl)no1)Nc1cnc2ccccc2c1 | 2 nM | 115% | 51% | 5 nM | 98% | 559 nM | 49% |  |  | > 200 | 95 mL/min/kg | 403 nM | 126 µL/min/mg | 49 µL/min/mg
2 | Clc1ccc(-c2noc(C3CCN(c4cnc5ccccc5c4)CC3)n2)c(Cl)c1 | 80 nM | 99% | 27% |  |  |  |  |  |  |  |  | 951 nM | 43 µL/min/mg | 58 µL/min/mg
3 | O=C(O)CCc1nc(-c2ccc(F)cc2Cl)no1 |  | 10% | 0.3% |  |  |  |  | inactive | inactive | > 200 |  |  |  | 
4 | CC(CCc1nc(-c2ccc(F)cc2Cl)no1)Nc1cnc2ccccc2c1 (racemic) | 15 nM | 112% | 69% |  |  |  |  |  |  | > 200 |  | 1560 nM | > 399 µL/min/mg | 142 µL/min/mg
5 | c1ccc2ncc(N3CCC(c4nc(C5CCCCC5)no4)CC3)cc2c1 | 26 nM | 113% | 105% |  |  |  |  |  |  |  |  | 600 nM | 185 µL/min/mg | 283 µL/min/mg
6 | CC(C)(CCc1nc(-c2ccc(F)cc2Cl)no1)Nc1cnc2ccccc2c1 | 53 nM | 52% | 70% | 50 nM | 93% | > 2000 nM | 46% |  |  | > 200 |  | 1300 nM | 775 µL/min/mg | 429 µL/min/mg
7 | Clc1ccc(-c2noc(C3CCN(c4cnc5ccccc5c4)CC3)n2)cc1 | 1780 nM | 26% | 26% |  |  |  |  |  |  |  |  | 2620 nM |  | 
8 | Fc1ccc(-c2noc(C3CCN(c4cnc5c(c4)CCCC5)CC3)n2)c(Cl)c1 | 19 nM | 113% | 60% |  |  |  |  |  |  |  |  | 910 nM | 130 µL/min/mg | 95 µL/min/mg
9 | Clc1cnccc1-c1noc(C2CCN(c3cnc4ccccc4c3)CC2)n1 | 24 nM | 103% | 23% |  |  |  |  |  |  |  |  | 96 nM | 187 µL/min/mg | 251 µL/min/mg
10 | CC(C)c1noc(C2CCN(c3cnc4ccccc4c3)CC2)n1 | 1440 nM | 38% | 8% |  |  |  |  |  | inactive |  |  |  |  | 
11 | Fc1ccc(-c2noc(C3CCN(c4cnc5ccc(OC(F)(F)F)cc5c4)CC3)n2)c(Cl)c1 | 3 nM | 110% | 33% |  |  |  |  |  |  |  |  | 419 nM | 18 µL/min/mg | 28 µL/min/mg
12 | CC1(C)CCCc2cc(N3CCC(c4nc(-c5ccc(F)cc5Cl)no4)CC3)cnc21 | 32 nM | 108% | 93% |  |  |  |  |  |  |  |  | 722 nM | > 399 µL/min/mg | 380 µL/min/mg
13 | Fc1ccc(-c2noc(C3CCN(c4cnc5c(C(F)(F)F)cccc5c4)CC3)n2)c(Cl)c1 | 16 nM | 106% | 34% |  |  |  |  |  |  |  |  | 15 nM | 54 µL/min/mg | 23 µL/min/mg
14 | Fc1ccc(-c2noc(CCCNc3cnc4ccccc4c3)n2)c(Cl)c1 | 11 nM | 104% | 103% |  |  |  |  |  |  | > 200 |  | 472 nM | 614 µL/min/mg | 179 µL/min/mg
15 | Fc1ccc(-c2noc([C@@H]3CCC[C@H]3Nc3cnc4ccccc4c3)n2)c(Cl)c1 (racemic) | 465 nM | 73% | 39% |  |  |  |  |  |  |  |  | 2230 nM |  | 

More lines, main results first:

Row | EC50 (Cannabinoid receptor 2 [2]) | Emax (Cannabinoid receptor 2 [3]) | Emax (Cannabinoid receptor 1 [5]) | EC50 (Cannabinoid receptor 2 [8]) | Emax (Cannabinoid receptor 2 [9]) | EC50 (Cannabinoid receptor 1 [10]) | Emax (Cannabinoid receptor 1 [11]) | Activity (Cannabinoid receptor 2 [12]) | Activity (Cannabinoid receptor 1 [13]) | Compound | Selectivity (Homo sapiens) | clearance [1] | EC50 (Cannabinoid receptor 1 [4]) | microsomal CLint [6] | microsomal CLint [7]
16 | 89 nM | 101% | 36% | 17 nM | 95% | > 1000 nM | 17% |  |  | Fc1ccc(-c2noc(C3CCN(c4cnc5ccccc5c4)CC3)n2)c(Cl)c1 |  |  | 3030 nM | 80 µL/min/mg | 92 µL/min/mg
17 | 1600 nM | 77% | 4% |  |  |  |  |  | inactive | Fc1ccc(-c2noc([C@H]3CC[C@@H](Nc4cnc5ccccc5c4)C3)n2)c(Cl)c1 (racemic) |  |  |  |  | 
18 | 99 nM | 110% | 8% | > 2000 nM | 0% | > 2000 nM | 1% |  | inactive | Fc1ccc(-c2noc([C@H]3C[C@@H]3CNc3cnc4ccccc4c3)n2)c(Cl)c1 (racemic) |  |  |  | 193 µL/min/mg | 69 µL/min/mg
19 | 376 nM | 93% | 2% |  |  |  |  |  | inactive | Fc1ccc(-c2noc(C3CCN(c4ccc(Cl)c(C(F)(F)F)c4)CC3)n2)c(Cl)c1 |  |  |  |  | 
20 | 86 nM | 116% | 46% | > 2000 nM | 23% | > 2000 nM | 3% |  |  | Fc1ccc(-c2noc(C[C@@H]3CCN(c4cnc5ccccc5c4)C3)n2)c(Cl)c1 |  |  | 1270 nM | 426 µL/min/mg | 215 µL/min/mg
21 | 1550 nM | 87% | -1% |  |  |  |  |  | inactive | O=C(NCCc1nc(-c2ccc(F)cc2Cl)no1)c1cnc2ccccc2c1 | > 200 |  |  |  | 
22 | 340 nM | 88% | 13% |  |  |  |  |  | inactive | CC(C)n1ccc2cc(N3CCC(c4nc(-c5ccc(F)cc5Cl)no4)CC3)cnc21 |  |  |  |  | 
23 | 2860 nM | 35% | 2% |  |  |  |  |  | inactive | Fc1ccc(-c2noc(C3CCN(c4ccnc5ccccc45)CC3)n2)c(Cl)c1 |  |  |  |  | 
24 | 313 nM | 53% | 8% |  |  |  |  |  | inactive | c1ccc2ncc(N3CCC(c4nc(-c5ccncc5)no4)CC3)cc2c1 |  |  |  |  | 
25 | 1550 nM | 89% | 8% |  |  |  |  |  | inactive | Fc1ccccc1-c1noc(C2CCN(c3cnc4ccccc4c3)CC2)n1 |  |  |  |  | 
26 | 140 nM | 109% | 24% |  |  |  |  |  |  | Fc1ccc(-c2noc(C[C@H]3CCN(c4cnc5ccccc5c4)C3)n2)c(Cl)c1 |  |  | 1690 nM | 579 µL/min/mg | 215 µL/min/mg
